Data published in patent US6319952A, “Compositions and methods for reversibly increasing permeability of biomembranes” (D-Pharm Ltd., priority 1997, dated 2001).

What was measured:
blood brain barrier [1] = conditions: cited from earlier work
[2] = system: blood-brain barrier (BBB); test: Effect of branched chain fatty acids on BBB permeability by qualitative Evan's Blue (EB) evaluation in rats; type: in vivo, rat (male Sprague-Dawley); conditions: intracarotid infusion
Procedure: Evaluation of Effect of Branched Fatty Acids on Blood-brain Barrier Permeability
The experiments were carried out on male Sprague-Dawley rats weighing 250-320 gr. They were anesthetized with Rampun-Imalgen. The right common carotid artery was exposed.
The test compounds were dissolved in 0.1M phosphate buffered physiological saline (pH=7.4) at the following test concentrations: 1.6; 8; 20; 40; 200 and 1000 μg/ml.
The test compound was infused into the right common carotid artery at a rate of 6 ml/min. for 30 s. The control rats were infused with buffer. Evan's Blue (EB) solution at a concentration of […] (2 g Evan's Blue, 0.9 g NaCl in 100 ml water) was injected intravenously 50 minutes prior to the termination of the experiment.
In the case of 45 min experiment, five minutes prior to the infusion of the tested material, 4 ml/kg body wt dose of Evans Blue solution was injected intravenously.
At the end of the experimental time period the animals were perfused with 100 ml of saline solution through the heart and decapitated. The degree of BBB opening, in terms of extravasation of Evan's Blue albumin, was graded on the basis of visual assessment of the degree of staining of the brain ato the method of Rapoport et al. (Rapoport et al., 1980, Amer. J. Physiol. 258, 421-431), and the results are presented in Tables 1 and 2.
The results presented are qualitative with four degrees of Evan's Blue extravasation according to Rapoport et al. Minus signs represents no staining and three plus signs represent maximal staining.

blood brain barrier [3] = conditions: Sztriha and Betz; cited from earlier work
mice = test: Acute intravenous toxicity test in mice; type: in vivo; conditions: i.v.; for dose causing mortality: mice, three days
Procedure: An acute intravenous toxicity test was performed to study the toxicity of the branched fatty acids in mice. The study included mortality and behavioral observations during three days. The rate of mortality is represented in the Table 5. M 3/14 caused mortality at a dose of 175 mg/kg; M3/12 at a dose of 75 mg/kg and M 3/10 at a dose of 100 mg/kg. Death was observed ten minutes after i.v. injection. In sub-lethal doses no significant behavior changes were observed.

membrane = conditions: Perlman and Goldstein; cited from earlier work

## OC[C@@H](O)[C@@H](O)[C@H](O)[C@H](O)CO [Mannitol]
Blood brain barrier [1]; osmotic modification, chemotherapy after barrier opening
  drug entry after barrier opening: enhanced drug entry to both brain-tumor and brain
Blood brain barrier [1]; osmotic modification
  complications of osmotic BBB modification: clinical manifestation of stroke, seizures, immunological reaction and ocular toxicity
Blood brain barrier [1]; osmotic treatment, Greig
  duration of BBB opening: very short period

## CCCCCCCCCCC(CCCCCCCCCC)C(=O)O [M 10/10, 2-decanyldodecanoic acid]
[2]; 625 μM, 45 min
  Visual EB: ++

## CCCCCCCC/C=C\CCCCCCCC(=O)O [oleic acid, reference compound]
Blood brain barrier [3]
  opening of the BBB: reversibly open the BBB
[2]; 125 μM, 180 min
  Visual EB: -

## CCCCCCCCCCC(CCC)C(=O)O (stereo not drawn) [M 3/10, 2-propyldodecanoic acid]
mice; 50 mg/kg, 10 mg/ml
  Mortality: 0/3
mice; 100 mg/kg, 10 mg/ml
  Mortality: 3/3
mice
  dose causing mortality: 100 mg/kg
[2]; 625 μM, 45 min
  Visual EB: ++

## CCCC(CCC)C(=O)O [valproic acid]
membrane
  membrane disordering: membrane disordering potency

## CCCCCCCCCCCCC(CCC)C(=O)O (stereo not drawn) [M 3/12, 2-propyltetradecanoic acid]
mice; 50 mg/kg, 2.5 mg/ml
  Mortality: 0/3
mice; 75 mg/kg, 2.5 mg/ml
  Mortality: 3/3
mice
  dose causing mortality: 75 mg/kg
[2]; 125 μM, 180 min
  Visual EB: ++
